# Measured values as given in patent publication US20050239873A1 (priority 1999, published 2005).
# How the values were obtained:
# [1] = test system: mitochondria from TABX2S cells; assay: Rhodamine 123 retention assay; design: species or system murine; details: five minutes after adding
# Procedure: Rh-123 is a cationic lipid-soluble fluorescent dye that accumulates in mitochondria in proportion to the mitochondrial membrane potential. Mitochondria were isolated from TABX2S cells (over-expressing Bcl-xL) and from control cells, prepared as described in Example 2. The isolated mitochondria were loaded with Rh-123 by incubating with 10 μM Rh-123 for 30 minutes, washed and resuspended in buffer. […] Less than 40% of Rh-123 was retained in antimycin A-treated TABX2S mitochondria, compared with greater than 80% retained in control mitochondria.
# [2] = test system: TAMH cells that over-express Bcl-2; assay: Sensitivity of Bcl-2 over-expressing cells to antimycin A; assay type: cell-based, murine; details: vs control cells
# TABX2S cells = assay: Cellular respiration by oximetry; assay type: cell-based, murine; details: higher concentrations (above 1 μg/ml)
# Procedure: (§1) Briefly, TABX2S cells (over-expressing Bcl-xL) and control cells (TAMH.neo) were suspended in air-equilibrated complete medium at a density of 3 million cells per milliliter and placed in a thermostatted electrode chamber at 37° C.
# TAMH.neo control cells = assay: Cellular respiration by oximetry; assay type: cell-based, murine; details: higher concentrations (above 1 μg/ml)
# Procedure: as §1
# S9 metabolism = assay type: in vitro ADME; details: male, hepatic S9 fraction, pH 7.4; for half-life at 500 ng/ml: 37° C.
# Text: All chemicals and solvents used for sample preparation and HPLC analysis were analytical grade. Acetonitrile, methanol, and phosphoric acid were purchased from Fisher Scientific (Atlanta, Ga.). Hepatic S9 fractions from male CD2F1 mice, male Sprague Dawley rats, male dogs, and male humans were purchased from In Vitro Technologies (Boston, Mass.). The National Cancer Institute provided samples of the test compounds and male CD2F1 mice. Fischer 344 rats with implanted jugular cannulas were obtained from Charles River Laboratories (Cambridge, Mass.). All animal use and care procedures were approved by the Institutional Committee on Animal Use and Care at the University of Alabama at Birmingham and conformed to the guidelines found in Guide for the Care and Use of Laboratory Animals, National Academy Press, 1996.
# To evaluate metabolism of the test compounds by S9 fractions from various species, reaction systems maintained at 37° C. contained 2-OMe-A3 (500 ng/ml) and S9 (1 mg protein/ml) in 100 mM Tris buffer (pH 7.4). At selected times, triplicate portions of the mixtures were removed and processed for analysis, as described above.
# [3] = Stability in cell culture; assay type: in vitro ADME; details: HL-60 and RPMI-8226 cultures, 500 ng/ml
# Procedure: HL60 and RPMI-8226 cells were maintained in cell culture medium in the presence or absence of 20% fetal bovine serum. 2-OMeA1 (500 ng/ml) was added to a culture containing 200,000 cells/ml, and to another flask containing only the medium. From the flasks, portions were removed at various times and, as appropriate, centrifuged to collect cells. Samples of cell-free medium, to which NaF/EDTA was added, were extracted. Collected cells were suspended in phosphate-buffered saline (PBS) containing NaF/EDTA, subjected to sonication, and then extracted and analyzed.
# RPMI-8226 cells [4] = details: suboptimal combinations with etoposide or melphalan
# Procedure: Current anti-myeloma regimens incorporate multiple drugs with different mechanisms of action. RPMI-8226 cells were treated with 2-OMeA1 in combination with standard chemotherapeutic agents used in myeloma treatment: etoposide, melphalan, or daunorubicin (Sonneveld and Segeren, Eur. J. Cancer 39:9-18, 2003).
# RPMI-8226 cells [5] = assay: Metabolic studies: glucose depletion from media and intracellular pH; assay type: cell-based, human
# Procedure: Cell survival was assayed by exclusion of propidium iodide (PI; 10 μg/ml) by unfixed cells. Annexin V-FITC (Pharmingen) or 3, 3′-dihexyloxacarbocyanine iodide (DiOC6(3); Molecular Probes) staining was analyzed together with PI to discriminate early apoptotic cells. Apoptotic cells were also measured as sub-G1 events among ethanol-fixed cells stained with 10 μg/ml PI. All cell samples were analyzed using a benchtop FACSCalibur™ (Becton Dickinson, San Jose, Calif.). Flow data were analyzed using MultiCycle AV software (Phoenix Flow Systems). For intracellular pH measurements, cell pellets were washed once and resuspended in 2 ml of HEPES-buffered medium (no phenol red and no serum). Carboxy-SNARF-1-AM (Molecular Probes, 1 mM stock in DMSO, stored at −20° C.) was added to a final concentration of 10 μM, and the cells were incubated for 30 min at 37° C. Following incubation with SNARF, cells were sedimented and the pellets were held on ice. Immediately before analysis, pellets were resuspended in […] (HBSS; experimental buffer) or high-[K+] buffer containing nigericin (calibration samples).
# The analysis by flow cytometry (Becton Dickinson FACScan™) was done with excitation at 488 nm, and emission at 585 and 640 nm (corresponding to the H^+-bound and—free forms of carboxy-SNARF-1-AM, respectively). […]
molecule,measurement,setting,value
antimycin A,Rh-123 retained,[1],Less than 40%
same,sensitivity to antimycin A,[2],more sensitive
same,basal oxygen consumption maintained,TABX2S cells,about 20%
same,oxygen consumption,TAMH.neo control cells,almost completely inhibited
"CCCC[C@H]1C(=O)OC(C)[C@H](NC(=O)c2cccc(NC=O)c2OC)C(=O)O[C@@H](C)C1OC(=O)CC(C)C (stereo partly shown) [2-OMeA3, Antimycin A3 methyl ether]",half-life at 2000 ng/ml,"S9 metabolism; CD2F1, mouse",> 5 min
same,half-life at 500 ng/ml,"S9 metabolism; CD2F1, mouse",> 5 min
same,half-life at 2000 ng/ml,"S9 metabolism; Sprague Dawley, rat",> 5 min
same,half-life at 500 ng/ml,"S9 metabolism; Sprague Dawley, rat",> 5 min
same,half-life at 2000 ng/ml,S9 metabolism; dog,> 5 min
same,half-life at 500 ng/ml,S9 metabolism; dog,> 5 min
"CCCCCC[C@H]1C(=O)O[C@H](C)[C@H](NC(=O)c2cccc(NC=O)c2OC)C(=O)O[C@@H](C)[C@@H]1OC(=O)CC(C)C [2-OMeA1, 2-methoxy antimycin A1]",stability in the medium from cell cultures,[3],notably less stable in the absence of fetal bovine serum
same,killing in combination,RPMI-8226 cells [4],Supra-additive killing
2-methoxy antimycin A [2-OMeA],"glycolysis (depletion of glucose from culture media, reduction in intracellular pH)",RPMI-8226 cells [5],stimulated glycolysis
